Assay results taken from US6040305A, “Compounds useful for inhibition of farnesyl protein transferase” (Schering Corporation, priority 1997, dated 2000).
Read-outs that look alike come from different tables or passages of the source.

Assays:
[1] = system: Human tumor cells; assay: Soft Agar Assay (anchorage-independent growth); format: cell-based; settings: 10-16 days at 37° C., 5% CO2, MTT staining, read-out: Soft Agar FPT IC50
Procedure: Anchorage-independent growth is a characteristic of tumorigenic cell lines. Human tumor cells are suspended in growth medium containing 0.3% agarose and an indicated concentration of a farnesyl transferase inhibitor. The solution is overlayed onto growth medium solidified with 0.6% agarose containing the same concentration of farnesyl transferase inhibitor as the top layer. After the top layer is solidified, plates are incubated for 10-16 days at 37° C. under 5% CO2 to allow colony outgrowth. After incubation, the colonies are stained by overlaying the agar with a solution of MTT (3-[4,5-dimethyl-thiazol-2-yl]-2,5-diphenyltetrazolium bromide, Thiazolyl blue) (1 mg/mL in PBS). Colonies can be counted and the IC50 's can be determined.

[2] = biological target: T1, farnesyl protein transferase (Homo sapiens, UniProt P49354+P49356); assay: FPT IC50, inhibition of farnesyl protein transferase (K-ras); format: biochemical
Procedure: (§1) FPT IC50 (inhibition of farnesyl protein transferase, in vitro enzyme assay) and COS Cell IC50 (Cell-Based Assay) were determined following the assay procedures described in WO 95110516, published Apr. 20, 1995. GGPT IC50 (inhibition of geranylgeranyl protein transferase, in vitro enzyme assay), Cell Mat Assay, and anti-tumor activity (in vivo anti-tumor studies) could be determined by the assay procedures described in WO 95/10516. The disclosure of WO 95/10516 is incorporated herein by reference thereto.

[3] = biological target: T1, farnesyl protein transferase; assay: FPT IC50, inhibition of farnesyl protein transferase, in vitro enzyme assay (H-ras); format: biochemical
Procedure: as §1

[4] = system: COS Cell; assay: COS Cell IC50 (Cell-Based Assay)
Procedure: as §1

Row | SMILES | IC50 [1] [nM] | IC50 [2] [nM] | IC50 [3] [nM] | IC50 ([1]; value given in M) [nM] | IC50 [4] [nM]
1 | O=C(CN1CCC(CC(=O)N2CCC([C@H]3c4ncc(Br)cc4CCc4cc(Cl)cc(Br)c43)CC2)CC1)NCc1ccccc1 [Compound 5.0] | – | 51.9 | 16 | – | 840
2 | O=C(CC1CCN(CC(=O)N2CCOCC2)CC1)N1CCC([C@H]2c3ncc(Br)cc3CCc3cc(Cl)cc(Br)c32)CC1 [Compound 7.0] | 100 | 20 | 5 | – | 25
3 | CC(C)(C)OC(=O)N1CCN(C(=O)CN2CCC(CC(=O)N3CCC([C@H]4c5ncc(Br)cc5CCc5cc(Cl)cc(Br)c54)CC3)CC2)CC1 [Compound 8.0] | > 500 | 42 | 18 | – | 22
4 | O=C(CC1CCN(CC(=O)N2CCc3ccccc32)CC1)N1CCC([C@H]2c3ncc(Br)cc3CCc3cc(Cl)cc(Br)c32)CC1 [Compound 10.0] | – | – | 5.4 | – | 100
5 | CC(C)(C)OC(=O)CN1CCC(CC(=O)N2CCC([C@H]3c4ncc(Br)cc4CCc4cc(Cl)cc(Br)c43)CC2)CC1 [Compound 11.0] | – | – | 28 | – | –

Stronger by IC50 [3], values ahead:

Row | IC50 [1] [nM] | IC50 [2] [nM] | IC50 [3] [nM] | IC50 ([1]; value given in M) [nM] | SMILES | IC50 [4] [nM]
6 | 70 | 8.6 | 1.8 | – | NC(=O)CN1CCC(CC(=O)N2CCC([C@H]3c4ncc(Br)cc4CCc4cc(Cl)cc(Br)c43)CC2)CC1 [Compound 2.0] | 6
7 | 175 | 26 | 3.9 | – | CON(C)C(=O)CN1CCC(CC(=O)N2CCC([C@H]3c4ncc(Br)cc4CCc4cc(Cl)cc(Br)c43)CC2)CC1 [Compound 3.0] | 20
8 | 300 | 46 | 4.3 | – | CCN(CC)C(=O)CN1CCC(CC(=O)N2CCC([C@H]3c4ncc(Br)cc4CCc4cc(Cl)cc(Br)c43)CC2)CC1 [Compound 4.0] | 40
9 | – | 17 | 3.4 | > 500 | O=C(CN1CCC(CC(=O)N2CCC([C@H]3c4ncc(Br)cc4CCc4cc(Cl)cc(Br)c43)CC2)CC1)N[C@@H]1O[C@H](CO)[C@H](O)[C@H](O)[C@H]1O [Compound 6.0] | 300
10 | 500 | 17 | 4.3 | – | O=C(CC1CCN(CC(=O)N2CCNCC2)CC1)N1CCC([C@H]2c3ncc(Br)cc3CCc3cc(Cl)cc(Br)c32)CC1 [Compound 9.0] | 120
11 | 60 | – | 2 | – | O=C(CC1CCN(CC(O)CO)CC1)N1CCC([C@H]2c3ncc(Br)cc3CCc3cc(Cl)cc(Br)c32)CC1 (stereo partly shown) [Compound 20.0] | < 10
